From the supplement of paper PMC10307832

Tests used:
Assay in all cases: relative viability (nuclei count vs DMSO), 5 days (fraction); higher = more cells survive
[1] = compound: O=C(CCCCCCC(=O)Nc1ccccc1)NO [Vorinostat] + COc1cc2c(Oc3ccc(NC(=O)C4(C(=O)Nc5ccc(F)cc5)CC4)cc3F)ccnc2cc1OCCCN1CCOCC1 [Foretinib] (partner 0.25 µM)
Method in brief: (§1)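 Medians of duplicate plates are given as relative viability. That measure is the nuclei count in treated wells divided by the count in vehicle wells. Counts were taken on 4× images of lung cancer cell lines in 1536-well plates, 5 days after pin-tool dosing the day after seeding with one drug alone or a fixed anchor-drug dose plus five library-drug doses (not always all listed) in √10 steps.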

[2] = compound: O=C(CCCCCCC(=O)Nc1ccccc1)NO [Vorinostat] + COc1cccc2cc(-c3nc([C@H]4CC[C@H](C(=O)O)CC4)n4ncnc(N)c34)[nH]c12 [OSI-027] (partner 0.5 µM)
Method in brief: as §1

[3] = compound: O=C(CCCCCCC(=O)Nc1ccccc1)NO [Vorinostat] + CCNC(=O)c1noc(-c2cc(C(C)C)c(O)cc2O)c1-c1ccc(CN2CCOCC2)cc1 [Luminespib] (partner 0.01 µM)
Method in brief: as §1

[4] = compound: O=C(CCCCCCC(=O)Nc1ccccc1)NO [Vorinostat] + N=C(N)NC(=N)NCCc1ccccc1 [Phenformin] (partner 250 µM)
Method in brief: as §1

[5] = compound: O=C(CCCCCCC(=O)Nc1ccccc1)NO [Vorinostat] + Cc1cc(Nc2cc(N3CCN(C)CC3)nc(Sc3ccc(NC(=O)C4CC4)cc3)n2)n[nH]1 [Tozasertib] (partner 0.1 µM)
Method in brief: as §1

[6] = compound: O=C(CCCCCCC(=O)Nc1ccccc1)NO [Vorinostat] + Cc1nc(Nc2ncc(C(=O)Nc3c(C)cccc3Cl)s2)cc(N2CCN(CCO)CC2)n1 [Dasatinib] (partner 0.075 µM)
Method in brief: as §1

[7] = compound: O=C(CCCCCCC(=O)Nc1ccccc1)NO [Vorinostat]
Method in brief: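 Following overnight incubation at 37 °C, lung cancer cell lines in 1536-well plates were pinned with five library-drug doses (not always all listed) in √10 steps on vehicle-anchored plates. The cells then spent 5 days without medium change before a combined fix, permeabilisation and Hoechst stain, 4× imaging and MetaXpress nuclear counts. Viability is the treated-to-vehicle ratio of nuclei, taken as the median across plates. Only plates with control CV below 25% and at least one doubling passed.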

[8] = compound: O=C(CCCCCCC(=O)Nc1ccccc1)NO [Vorinostat] + CC(=O)c1c(C)c2cnc(Nc3ccc(N4CCNCC4)cn3)nc2n(C2CCCC2)c1=O [Palbociclib] (partner 0.5 µM)
Method in brief: as §1

[9] = compound: O=C(CCCCCCC(=O)Nc1ccccc1)NO [Vorinostat] + Nc1ncn([C@H]2C[C@H](O)[C@@H](CO)O2)c(=O)n1 [Decitabine] (partner 2 µM)
Method in brief: as §1

[10] = compound: O=C(CCCCCCC(=O)Nc1ccccc1)NO [Vorinostat] + CC(=O)Nc1cccc(-n2c(=O)n(C3CC3)c(=O)c3c(Nc4ccc(I)cc4F)n(C)c(=O)c(C)c32)c1 [Trametinib] (partner 0.02 µM)
Method in brief: as §1

[11] = compound: O=C(CCCCCCC(=O)Nc1ccccc1)NO [Vorinostat] + Nc1nc2[nH]cc(CCc3ccc(C(=O)N[C@@H](CCC(=O)O)C(=O)O)cc3)c2c(=O)[nH]1 [Pemetrexed] (partner 0.2 µM)
Method in brief: as §1

[12] = compound: O=C(CCCCCCC(=O)Nc1ccccc1)NO [Vorinostat] + NC(=O)Nc1cc(-c2cccc(F)c2)sc1C(=O)N[C@H]1CCCNC1 [AZD7762] (partner 0.2 µM)
Method in brief: as §1

[13] = compound: O=C(CCCCCCC(=O)Nc1ccccc1)NO [Vorinostat] + O=C(c1cc(Cc2n[nH]c(=O)c3ccccc23)ccc1F)N1CCN(C(=O)C2CC2)CC1 [Olaparib] (partner 8 µM)
Method in brief: as §1

NCI-H1623 was tested, and the relative viability ([1]; first compound 0.253 µM) was 0.918, the relative viability ([1]; first compound 0.8 µM) was 0.781 and the relative viability ([1]; first compound 2.53 µM) was 0.42. It also gave a relative viability ([1]; first compound 8 µM) of 0.233, a relative viability ([2]; first compound 0.253 µM) of 0.462 and a relative viability ([2]; first compound 0.8 µM) of 0.392. The relative viability ([2]; first compound 2.53 µM) was 0.281, the relative viability ([2]; first compound 8 µM) was 0.209 and the relative viability ([3]; first compound 0.253 µM) was 0.529. It also gave a relative viability ([3]; first compound 0.8 µM) of 0.564, a relative viability ([3]; first compound 2.53 µM) of 0.398 and a relative viability ([3]; first compound 8 µM) of 0.291. The relative viability ([4]; first compound 0.253 µM) was 0.61, the relative viability ([4]; first compound 0.8 µM) was 0.564 and the relative viability ([4]; first compound 2.53 µM) was 0.462. The relative viability ([4]; first compound 8 µM) was 0.225, the relative viability ([5]; first compound 0.253 µM) was 0.41 and the relative viability ([5]; first compound 0.8 µM) was 0.408. For the same cell line, the relative viability ([5]; first compound 2.53 µM) was 0.283, the relative viability ([5]; first compound 8 µM) was 0.217 and the relative viability ([6]; first compound 0.253 µM) was 0.387. For the same cell line, the relative viability ([6]; first compound 0.8 µM) was 0.521, the relative viability ([6]; first compound 2.53 µM) was 0.436 and the relative viability ([6]; first compound 8 µM) was 0.203. For the same cell line, the relative viability ([7]; 0.253 µM) was 0.916, the relative viability ([7]; 0.8 µM) was 0.948 and the relative viability ([7]; 2.53 µM) was 0.358. For the same cell line, the relative viability ([7]; 8 µM) was 0.217.

For SW 900, the relative viability ([1]; first compound 0.253 µM) was 0.925, the relative viability ([1]; first compound 0.8 µM) was 0.927 and the relative viability ([1]; first compound 2.53 µM) was 0.644. The relative viability ([1]; first compound 8 µM) was 0.111, the relative viability ([8]; first compound 0.253 µM) was 0.513 and the relative viability ([8]; first compound 0.8 µM) was 0.526. For the same cell line, the relative viability ([8]; first compound 2.53 µM) was 0.219, the relative viability ([8]; first compound 8 µM) was 0.136 and the relative viability ([9]; first compound 0.253 µM) was 0.34. It also gave a relative viability ([9]; first compound 0.8 µM) of 0.351, a relative viability ([9]; first compound 2.53 µM) of 0.23 and a relative viability ([9]; first compound 8 µM) of 0.159. It also gave a relative viability ([10]; first compound 0.253 µM) of 0.739, a relative viability ([10]; first compound 0.8 µM) of 0.703 and a relative viability ([10]; first compound 2.53 µM) of 0.249. It also gave a relative viability ([10]; first compound 8 µM) of 0.129, a relative viability ([2]; first compound 0.253 µM) of 0.49 and a relative viability ([2]; first compound 0.8 µM) of 0.472. For the same cell line, the relative viability ([2]; first compound 2.53 µM) was 0.227, the relative viability ([2]; first compound 8 µM) was 0.0866 and the relative viability ([11]; first compound 0.253 µM) was 0.502. For the same cell line, the relative viability ([11]; first compound 0.8 µM) was 0.483, the relative viability ([11]; first compound 2.53 µM) was 0.308 and the relative viability ([11]; first compound 8 µM) was 0.147. The relative viability ([3]; first compound 0.253 µM) was 0.172, the relative viability ([3]; first compound 0.8 µM) was 0.161 and the relative viability ([3]; first compound 2.53 µM) was 0.16. For the same cell line, the relative viability ([3]; first compound 8 µM) was 0.133, the relative viability ([12]; first compound 0.253 µM) was 0.606 and the relative viability ([12]; first compound 0.8 µM) was 0.418. It also gave a relative viability ([12]; first compound 2.53 µM) of 0.229, a relative viability ([12]; first compound 8 µM) of 0.0892 and a relative viability ([4]; first compound 0.253 µM) of 0.73. The relative viability ([4]; first compound 0.8 µM) was 0.391, the relative viability ([4]; first compound 2.53 µM) was 0.322 and the relative viability ([4]; first compound 8 µM) was 0.091. It also gave a relative viability ([5]; first compound 0.253 µM) of 0.584, a relative viability ([5]; first compound 0.8 µM) of 0.315 and a relative viability ([5]; first compound 2.53 µM) of 0.213. The relative viability ([5]; first compound 8 µM) was 0.113, the relative viability ([13]; first compound 0.253 µM) was 0.901 and the relative viability ([13]; first compound 0.8 µM) was 0.589. The relative viability ([13]; first compound 2.53 µM) was 0.192, the relative viability ([13]; first compound 8 µM) was 0.113 and the relative viability ([6]; first compound 0.253 µM) was 0.679. The relative viability ([6]; first compound 0.8 µM) was 0.739, the relative viability ([6]; first compound 2.53 µM) was 0.249 and the relative viability ([6]; first compound 8 µM) was 0.118. The relative viability ([7]; 0.253 µM) was 0.653, the relative viability ([7]; 0.8 µM) was 0.644 and the relative viability ([7]; 1 µM, anchor plate) was 0.576. For the same cell line, the relative viability ([7]; 2.53 µM) was 0.391 and the relative viability ([7]; 8 µM) was 0.128.
